The conditions of this data set: 298.15 K; 101.33 kPa; Liquid; Vibrating tube method.

± gives the expanded uncertainty stated by the source.

Among the data in the NIST ThermoML archive (doi:10.1016/j.jct.2015.10.011) are mass density values, retold here.

By mass density is commonly meant mass per unit of volume.

Take `CCCCCC` [hexane]: the mass density is 655.19 ± 0.83 kg/m3.
